From US20260325473A1, “N-Beta-Hydroxybutyryl-Amino Acids and Related Compositions and Methods” (The Board of Trustees of the Leland Stanford Junior …, priority 2023, published 2026)

Assays:
DIO mice [1] = test: Plasma ghrelin, leptin and GDF-15 in DIO mice; format: in vivo, mouse; settings: 50 mg/kg IP, single; 1 h
Experimental: Leptin, ghrelin and GDF-15 measurements. Plasma was collected from DIO mice 1 h after the administration of BHB-Phe (50 mg/kg, IP) or vehicle. ELISA kits for leptin (Crystal Chem 90030), ghrelin (Cayman Chemicals 10006307) and GDF-15 (R&D Systems DY6385-05) were used following manufacturer's instructions.

CNDP2 = biological target: T1, CNDP2 (Mus musculus, UniProt Q9D1A2); test: In vitro synthase (condensation) activity, lysates of CNDP2-transfected HEK293T cells; format: biochemical; set-up: expressed in transfected cells; host or cells: HEK293T (lysate); settings: role: product
T1 sequence (Q9D1A2 1-475): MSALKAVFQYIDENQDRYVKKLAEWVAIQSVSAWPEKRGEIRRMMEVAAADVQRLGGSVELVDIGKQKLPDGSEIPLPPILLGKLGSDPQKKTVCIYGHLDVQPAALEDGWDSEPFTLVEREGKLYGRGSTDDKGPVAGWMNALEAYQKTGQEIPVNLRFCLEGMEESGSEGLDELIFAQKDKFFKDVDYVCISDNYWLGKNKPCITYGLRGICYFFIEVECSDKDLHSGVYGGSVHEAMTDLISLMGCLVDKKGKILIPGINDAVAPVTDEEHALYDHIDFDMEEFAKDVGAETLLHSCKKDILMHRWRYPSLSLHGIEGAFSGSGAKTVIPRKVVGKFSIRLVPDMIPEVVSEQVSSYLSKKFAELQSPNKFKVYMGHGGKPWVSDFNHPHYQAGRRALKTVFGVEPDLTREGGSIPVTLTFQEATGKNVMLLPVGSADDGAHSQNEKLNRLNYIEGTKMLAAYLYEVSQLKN
Experimental: In vitro enzyme activity assays. HEK293T cells were transfected with GFP, CNDP2 or CNDP2-E166A using PolyFect (Qiagen 301105) according to the manufacturer's instructions. The medium was changed one day post-transfection. After an additional 24 h, the cells were harvested in PBS, lysed by sonication and centrifuged (10 min at 15,000 rpm) to remove debris. Supernatant was collected and protein concentrations were adjusted. The in vitro reactions were conducted in Eppendorf tubes with 100 μL of 1 mg/mL protein and 20 mM substrates for keto amino acid synthase activity assays and. Reactions were incubated for 1 h at 37° C. and 20 μl of 1 M HCl were added to acidify the medium and to protonate keto amino acids. Reactions were vortexed and 400 μL of ethyl acetate were added to each reaction. Reactions were vortexed for 30 s to extract keto amino acids into the organic layer and centrifuged at 4° C. for 10 min at 15,000 r.p.m. A total of 300 μl from the top layer was transferred to a new Eppendorf tube and dried down under a stream of nitrogen. The residue was re-suspended in 150 μl of an 2:1:1 mixture of acetonitrile: methanol: water. The mixture was centrifuged at 4° C. for 10 min at 15,000 r.p.m. and the supernatant was transferred to a LC-MS vial.

[2] = Metabolite quantitation in mouse plasma (QQQ-LC/MS); format: in vivo
Experimental: Preparation of plasma samples for LC-MS analysis. Plasma was collected from mice via a submandibular bleed into lithium heparin tubes (BD, 365985) and immediately transferred onto ice. The blood was centrifuged at 4° C. at 5000 rpm for 5 min and the top layer of plasma was aliquoted and frozen at −80 °C. To extract polar metabolites from plasma for LC-MS analysis, 150 μl of a 2:1 mixture of acetonitrile/methanol was added to 50 μl of plasma. The mixture was centrifuged at 4° C. for 10 min at 15,000 rpm and the supernatant was transferred to a LC-MS vial.
Targeted metabolomics. Targeted measurements were performed using an Agilent 6470 triple quadrupole LC-MS instrument. MS analysis was performed using AJS in negative mode. The AJS source parameters were set as follows: the dry gas temperature was set at 250° C. with a gas flow of 12 l/min and the nebulizer pressure at 25 psi; the sheath gas temperature was set to 300° C. with the sheath gas flow set at 12 l/min; and the capillary voltage was set to 3,500 V. Separation of polar metabolites was performed as described above in the ‘Untargeted measurements of metabolites by LC-MS’ section. Multiple reaction monitoring was performed for the indicated metabolites with the listed dwell times, fragmentor voltage, collision energies, cell accelerator voltages and polarities. Quantification of the endogenous metabolite concentrations were performed by generating a standard curve with known concentrations of each metabolite. Metabolite standards were analyzed alongside the plasma samples using the same targeted triple quadrupole LC/MS method. A calibration standard curve generated from the metabolite standard concentrations and total peak areas were used to calculate the concentrations of each endogenous metabolite. The dilution of the plasma during the sample preparation was also taken into account for the quantification.

[3] = Acute administration in DIO mice in home cages: food intake and plasma BHB-Phe; format: in vivo, mouse; settings: mouse, plasma; 50 mg/kg IP, single; read-out: time of peak plasma level
Experimental: (§1) General animal information. Animal experiments were performed according to procedure approved by the Stanford University Administrative Panel on Laboratory Animal Care (APLAC). Mice were maintained in 12-hr light-dark cycles at 22° C. and ~50% relative humidity and fed a standard irradiated rodent chow diet. Where indicated, high-fat diet (D12492, Research Diets 60% kcal from fat) and ketogenic diet (D06040601, Research Diets, 80% kcal fat/15% kcal protein/5% kcal carbohydrate) was used. Male C57BL/6J (stock no. 000664) and male C57BL/6J DIO mice (stock no. 380050) were purchased from Jackson Laboratory. Male C57BL/6NCrl (stock no. 027) mice were purchased from Charles River Laboratory. Whole body CNDP2-KO mice (catalog number, C57BL/6NCrl-Cndp2em1 (IMPC) Mbp/Mmucd, RRID: MMRRC_043492-UCD) were obtained from the Mutant Mouse Regional Resource Center, a NCRR-NIH funded strain repository. For in vivo injection of mice with metabolites, compounds were dissolved in 18:1:1 (by volume) of saline/Kolliphor EL (Sigma Aldrich)/DMSO. Compounds were administered to mice daily via intraperitoneal injections at 5 μl/g body weight at the indicated doses. For all injection experiments, mice were mock injected with the vehicle for 3-5 days until body weights have stabilized. Sample sizes were determined on the basis of previous experiments using similar methodologies. For metabolite administration experiments, mice were randomly assigned to treatment groups. Experimenters were not blinded to groups.
Preparation of plasma samples for LC-MS analysis. Plasma was collected from mice via a submandibular bleed into lithium heparin tubes (BD, 365985) and immediately transferred onto ice. […]
Targeted metabolomics. […] Quantification of the endogenous metabolite concentrations were performed by generating a standard curve with known concentrations of each metabolite. Metabolite standards were analyzed alongside the plasma samples using the same targeted triple quadrupole LC/MS method. […] The dilution of the plasma during the sample preparation was also taken into account for the quantification.

DIO mice [4] = test: Plasma AST, ALT, TG, HDL, LDL in DIO mice after chronic treatment; format: in vivo, mouse; settings: 50 mg/kg/day IP; 14 days
Experimental: as §1

product formed with BHB and phenylalanine as only substrates (CNDP2; BHB alone with 20 mM phenylalanine): exclusive product formed
products formed from combined lactate and BHB (CNDP2; lactate and BHB at varying concentrations, phenylalanine 20 mM): simultaneous production
effect of acute treadmill running on level ([2]; 15 min running): unchanged
elevation after ketone ester administration ([2]; 30 min after ketone drink, 3 mg/g): > 10 fold
effect of strenuous and prolonged exercise on level ([2]; 30 min strenuous running): robust co-induction
Tmax [3]: 1 h
SMILES: CC(O)CC(=O)N[C@@H](Cc1ccccc1)C(=O)O (some centres unmarked) [BHB-Phe, N-betahydroxybutyryl-phenylalanine]
plasma GDF15 (DIO mice [1]): unaltered
plasma ghrelin (DIO mice [1]): unaltered
plasma leptin (DIO mice [1]): unaltered
plasma ALT (DIO mice [4]): reductions
plasma AST (DIO mice [4]): reductions
plasma HDL-cholesterol (DIO mice [4]): no changes
plasma LDL-cholesterol (DIO mice [4]): no changes
plasma total triglycerides (TG) (DIO mice [4]): reductions
